This note sets out measurements from patent publication US20210401776A1, “METHOD OF TREATING […] SYNDROMES USING FENFLURAMINE ENANTIOMERS” (ZOGENIX INTERNATIONAL LIMITED, priority 2018, published 2021).

“Also recorded” adds a separate entry of the source.

Experiment [1] relates to homozygous scn1Lab−/− mutants. The experiment is described as follows: zebrafish locomotor assay (total distance in large movements, lardist). The class given is in vivo, zebrafish (Danio rerio). To be noted: scn1Lab−/− mutants; for reduction in seizure behavior: fixed concentration, FIG. 3. The text has this: (Baraban et al, 2013). Additional phenotypes of these mutants include: abnormal optokinetic response (OKR; 5 dpf); darkened pigmentation; death by 14 dpf; spontaneous seizure-like activity; abnormal (forebrain electrographic activity (3-7 dpf); seizure activity; lower levels of serotonin in scn1lab^−/− head homogenates at 7 dpf; zebrafish express orthologs of human serotonin (5HT) receptor subtypes at 5 dpf; nighttime hyperactivity (5 dpf); in open field-increased thigmotaxis. decreased movement (at 5 dpf); no differences in GABAergic neurons compared to wild type (5 dpf); 5-HT2a (hitr2aa/b) and S-HT2c; (htr2c11) orthologs expressed in larval heads in wild-type and scn1lab−/− mutants and in adult wild-type brains.
To assay the locomotor activity of homozygous scn1Lab−/− mutants and control WT scn1Lab+/+, zebrafish larvae were placed one larva per well in a 96-well plate in 100 μL of embryo medium from 4 to 8 days post-fertilization (dpf). Each day the larvae are tracked in an automated tracking device (ZebraBox™ apparatus; Viewpoint, Lyon, France) for 10 min after 30 min habituation (100-second integration interval). All recordings were performed at the same time during daytime period. The total distance in large movements was recorded and quantified using ZebraLab™ software (Viewpoint, Lyon, France). Data was pooled together from at least three independent experiments with at least 24 larvae per condition.
Scn1Lab^−/− mutants and WT scn1Lab+/+ larvae are arrayed in the same plate and treated at 6 days post fertilization (dpf) with the test compounds (25 μM), or VHC in individual wells of a 96-well plate. After incubation at 28° C. on a 14/10 hour light/dark cycle and 30-min chamber habituation 6 and 7 dpf larvae are tracked for locomotor activity for 10 min (100-second integration interval) under dark conditions. An incubation time of 1.5 hours is further referred to as short treatment (6 dpf). Furthermore, these larvae are analyzed after more than 22 hours incubation (7 dpf), i.e. long treatment. The total locomotor activity is quantified using the parameter lardist and plotted in cm. Data for each compound is pooled together from multiple independent experiments with at least 9 larvae per treatment condition.

In experiment [2] the test system is homozygous scn1Lab−/− mutants. As to the kind of experiment: epileptiform activity, open-field recordings in larval forebrain (LFP assay). The class given is in vivo, zebrafish (Danio rerio). To be noted: for LFP Assay: Table 1, 25, 59 and 100 μM, oral via embryo medium.
In experiment [3] the test system is dizocilpine-treated mice. As to the kind of experiment: step-through passive avoidance, dizocilpine-induced amnesia model. The class given is in vivo, Male Swiss OF-1 mice.
The test system of experiment [4] is dizocilpine-treated mice. As to the kind of experiment: spontaneous alternation in the Y-maze, dizocilpine-induced amnesia model. The class given is in vivo, Male Swiss OF-1 mice.

Regarding `CC(N)Cc1cccc(C(F)(F)F)c1` (single isomer, unassigned; (-)) [(−)-Norfenfluramine], in experiment [1], the “reduction in seizure behavior” value came to 45%. In addition, in experiment [2] (50 micromolar, FIGS. 4 and 5), the “anti-epileptiform activity (frequency and cumulative duration of epileptiform events over 10 minutes)” value was “less efficacious than (+)- and (−)-fenfluramine; also recorded: comparable”. Also, the “LFP Assay” value in experiment [2] was “Inactive”.
Take Dehydroepiandrosterone sulfate [DHEAS]: the “PP (%)” value in the experiment on dizocilpine-treated mice [3] (Table 5 STPA, DHEAS alone 5 mg/kg sc) is 19.1 ± 10.7%; with dizocilpine-treated mice [3] (Table 5 STPA, DHEAS alone 10 mg/kg sc), 47.2 ± 12.8%; in the experiment on dizocilpine-treated mice [3] (Table 5 STPA, DHEAS alone 20 mg/kg sc), 40.3 ± 13.3^4%; in the experiment with dizocilpine-treated mice [4] (Table 5 YMT, DHEAS alone 5 mg/kg sc), 18.4 ± 9.7%; in the experiment on dizocilpine-treated mice [4] (Table 5 YMT, DHEAS alone 10 mg/kg sc) it was 29.8 ± 7.4%; in the experiment on dizocilpine-treated mice [4] (Table 5 YMT, DHEAS alone 20 mg/kg sc) it was 57.9 ± 11.0^1%.
`CC(N)Cc1cccc(C(F)(F)F)c1` (single isomer, unassigned; (+)) [(+)-Norfenfluramine]: in experiment [1], the “antiseizure activity in the zebrafish locomotor assay” value is reported as “more efficacious than (−)-norfenfluramine” and the “reduction in seizure behavior” value was determined as 80%. The “LFP Assay” value in experiment [2] is given as “Less effective than (+)-FFA;”.
As for pregnenolone sulfate [PREGS], the “PP (%)” value in the experiment with dizocilpine-treated mice [3] (Table 6 STPA, PREGS alone 5 mg/kg sc) is listed as 4.4 ± 16.3%; in the experiment on dizocilpine-treated mice [3] (Table 6 STPA, PREGS alone 10 mg/kg sc), 21.0 ± 14.6%; in the experiment on dizocilpine-treated mice [3] (Table 6 STPA, PREGS alone 20 mg/kg sc), 26.0 ± 19.1 ^4%; in the experiment on dizocilpine-treated mice [4] (Table 6 YMT, PREGS alone 5 mg/kg sc), 3.5 ± 17.6%; with dizocilpine-treated mice [4] (Table 6 YMT, PREGS alone 10 mg/kg sc), 52.4 ± 12.2%; in the experiment with dizocilpine-treated mice [4] (Table 6 YMT, PREGS alone 20 mg/kg sc), 72.1 ± 12.4 ^1%.
Regarding `Cl.O=C(OCCN1CCOCC1)C1(c2ccccc2)CCCCC1` [PRE-084, 2-(4-Morpholinethyl)-1-phenylcyclohexanecarboxylate hydrochloride], the “PP (%)” value is recorded as 4.9 ± 9.9% in the experiment with dizocilpine-treated mice [3] (Table 2 StepThrough/Passive Avoidance, drug alone 0.1 mg/kg IP); 34.6 ± 10.5 ^3% with dizocilpine-treated mice [3] (Table 2 StepThrough/Passive Avoidance, drug alone 0.3 mg/kg IP); 7.6 ± 12.4% in the experiment on dizocilpine-treated mice [3] (Table 3 StepThrough/PassiveAvoidance, drug alone 0.1 mg/kg IP); 25.2 ± 9.8 ^3% in the experiment with dizocilpine-treated mice [3] (Table 3 StepThrough/PassiveAvoidance, drug alone 0.3 mg/kg IP); 8.8 ± 11.0% with dizocilpine-treated mice [3] (Table 4 StepThrough/PassiveAvoidance, drug alone 0.1 mg/kg IP); 38.9 ± 10.4 ^3% with dizocilpine-treated mice [3] (Table 4 StepThrough/PassiveAvoidance, drug alone 0.3 mg/kg IP). For the same molecule, the “PP (%)” value with dizocilpine-treated mice [4] (Table 2 Y-Maze, drug alone 0.1 mg/kg IP) is recorded as 6.6 ± 12.8%; in the experiment with dizocilpine-treated mice [4] (Table 2 Y-Maze, drug alone 0.3 mg/kg IP), 40.5 ± 9.2 ^1%; in the experiment with dizocilpine-treated mice [4] (Table 3 Y-Maze, drug alone 0.1 mg/kg IP) it was 15.4 ± 10.9%; in the experiment with dizocilpine-treated mice [4] (Table 3 Y-Maze, drug alone 0.3 mg/kg IP), 32.6 ± 8.9 ^1%; with dizocilpine-treated mice [4] (Table 4 Y Maze, drug alone 0.1 mg/kg IP) it was 17.2 ± 13.8%; in the experiment with dizocilpine-treated mice [4] (Table 4 Y Maze, drug alone 0.3 mg/kg IP) it was 27.0 ± 9.5 ^1%.
